Results reported in PubChem BioAssay (NCI).
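Growth conditions: 96-well plates. Treatment: test compound, 48 hours, 5 concentrations. Analysis: linear interpolation between bracketing concentrations; unreached endpoints set to highest concentration. GI50 marks 50% less growth. TGI is the concentration that stops growth completely.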

How the values were obtained:
Assay in all cases: NCI anticancer screen, dose series, 48 h
[1] = tested on: SK-MEL-28 melanoma
[2] = tested on: HOP-92 NSCLC
[3] = tested on: A498 renal
[4] = tested on: T-47D breast
[5] = tested on: OVCAR-8 ovarian
[6] = tested on: DU-145 prostate
[7] = tested on: SK-OV-3 ovarian
[8] = tested on: NCI/ADR-RES ovarian
[9] = tested on: HCT-116 colon
[10] = tested on: IGROV1 ovarian
[11] = tested on: 786-0 renal
[12] = tested on: PC-3 prostate
[13] = tested on: MDA-MB-231 breast
[14] = tested on: COLO 205 colon
[15] = tested on: SF-539 CNS
[16] = tested on: NCI-H522 lung
[17] = tested on: SF-268 CNS
[18] = tested on: NCI-H226 lung
[19] = tested on: OVCAR-4 ovarian
[20] = tested on: NCI-H460 lung
[21] = tested on: SNB-75 CNS
[22] = tested on: HS 578T breast
[23] = tested on: SR leukemia
[24] = tested on: EKVX NSCLC
[25] = tested on: K-562 leukemia
[26] = tested on: MOLT-4 leukemia
[27] = tested on: HCC-2998 colon
[28] = tested on: SN12C renal
[29] = tested on: KM12 colon
[30] = tested on: CCRF-CEM leukemia
[31] = tested on: SK-MEL-2 melanoma
[32] = tested on: HT29 colon
[33] = tested on: UO-31 renal
[34] = tested on: SW-620 colon
[35] = tested on: UACC-62 melanoma
[36] = tested on: SK-MEL-5 melanoma
[37] = tested on: BT-549 breast
[38] = tested on: RXF 393 renal
[39] = tested on: SF-295 CNS
[40] = tested on: RPMI-8226 leukemia
[41] = tested on: HOP-62 NSCLC
[42] = tested on: A549 NSCLC
[43] = tested on: NCI-H23 lung
[44] = tested on: MDA-MB-435
[45] = tested on: U251 CNS
[46] = tested on: SNB-19 CNS
[47] = tested on: MCF7 breast
[48] = tested on: TK-10 renal
[49] = tested on: LOX IMVI melanoma
[50] = tested on: M14 melanoma
[51] = tested on: OVCAR-5 ovarian
[52] = tested on: HCT-15 colon
[53] = tested on: HL-60(TB) leukemia
[54] = tested on: UACC-257 melanoma
[55] = tested on: OVCAR-3 ovarian

C=C(C=O)C1CC(=O)C(C(=O)OC)[C@@H]2O[C@@](C)(CC2=O)C[C@@H]2OC(=O)[C@]3(O[C@@H]23)[C@@H](C(=O)OC)C1 (stereo not given in full)
GI50 [1]: 20.2 µM | TGI [1]: 66.5 µM | GI50 [2]: 16.5 µM | TGI [2]: 37.9 µM | GI50 [3]: 20.7 µM | TGI [3]: 47 µM | GI50 [4]: 33.7 µM | TGI [4]: > 100 µM | GI50 [5]: 17.9 µM | TGI [5]: 62.4 µM | GI50 [6]: 28.9 µM | TGI [6]: > 100 µM | GI50 [7]: 60.6 µM | TGI [7]: > 100 µM | GI50 [8]: 46.4 µM | TGI [8]: > 100 µM | GI50 [9]: 14.7 µM | TGI [9]: 33.6 µM | GI50 [10]: 4.56 µM | TGI [10]: 48.3 µM | GI50 [11]: 19.3 µM | TGI [11]: 51 µM | GI50 [12]: 19.3 µM | TGI [12]: 57.6 µM | GI50 [13]: 22.1 µM | TGI [13]: 57.5 µM | GI50 [14]: 17.2 µM | TGI [14]: > 100 µM | GI50 [15]: 18 µM | TGI [15]: 61.2 µM | GI50 [16]: 7.03 µM | TGI [16]: 41.5 µM | GI50 [17]: 21.5 µM | TGI [17]: 65.9 µM | GI50 [18]: 24.9 µM | TGI [18]: > 100 µM | GI50 [19]: 30 µM | TGI [19]: 92.4 µM | GI50 [20]: 24.4 µM | TGI [20]: 70.8 µM | GI50 [21]: 31 µM | TGI [21]: > 100 µM | GI50 [22]: 32.8 µM | TGI [22]: > 100 µM | GI50 [23]: 2630 nM | TGI [23]: 7.96 µM | GI50 [24]: 27.2 µM | TGI [24]: 95.1 µM | GI50 [25]: 20.1 µM | TGI [25]: > 100 µM | GI50 [26]: 4.2 µM | TGI [26]: > 100 µM | GI50 [27]: 14.4 µM | TGI [27]: 30.8 µM | GI50 [28]: 18.7 µM | TGI [28]: 50.4 µM | GI50 [29]: 19.2 µM | TGI [29]: 45 µM | GI50 [30]: 5.81 µM | TGI [30]: > 100 µM | GI50 [31]: 15.6 µM | TGI [31]: 52.9 µM | GI50 [32]: 29 µM | TGI [32]: > 100 µM | GI50 [33]: 19 µM | TGI [33]: 48.9 µM | GI50 [34]: 12.2 µM | TGI [34]: 47.3 µM | GI50 [35]: 18.1 µM | TGI [35]: 44.8 µM | GI50 [36]: 17 µM | TGI [36]: 38.5 µM | GI50 [37]: 21.7 µM | TGI [37]: 55 µM | GI50 [38]: 9.3 µM | TGI [38]: 33.6 µM | GI50 [39]: 11.2 µM | TGI [39]: 28.6 µM | GI50 [40]: 4.16 µM | TGI [40]: 21.8 µM | GI50 [41]: 25.6 µM | TGI [41]: 58.8 µM | GI50 [42]: 29 µM | TGI [42]: 67.1 µM | GI50 [43]: 18.3 µM | TGI [43]: 42.8 µM | GI50 [44]: 14.3 µM | TGI [44]: 33 µM | GI50 [45]: 14.6 µM | TGI [45]: 39.8 µM | GI50 [46]: 38.3 µM | TGI [46]: > 100 µM | GI50 [47]: 11.1 µM | TGI [47]: 28 µM | GI50 [48]: 24.7 µM | TGI [48]: 42 µM | GI50 [49]: 7.94 µM | TGI [49]: 21.3 µM | GI50 [50]: 14.8 µM | TGI [50]: 30.4 µM | GI50 [51]: 23.1 µM | TGI [51]: 51.2 µM | GI50 [52]: 16.2 µM | TGI [52]: 38.5 µM | GI50 [53]: 20.1 µM | TGI [53]: 53.5 µM | GI50 [54]: 10.2 µM | TGI [54]: 28.6 µM | GI50 [55]: 12.8 µM | TGI [55]: 32.8 µM
